Assay results as given in PubChem BioAssay AID488786 (NMMLSC, 2010).
Activity calls are given as the source filed them.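 The calls were made as follows: active = compounds whose fitted off-rate of the fluorescent probe exceeds 0.05 per second; inactive = the rest.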

Target: Integrin alpha-4 (Homo sapiens) (UniProt P13612)
Test: VLA-4 ligand dissociation kinetics with analogs – U937 cells, flow cytometry, mechanism study for VLA-4 allosteric modulator project, SAR follow-up (AID 488786)
Settings: LDV-FITC dissociation rate; for dissociation rate: at 100 µM, active compounds read high

Sequence of Integrin alpha-4 (Homo sapiens) (P13612 whole entry, looked up): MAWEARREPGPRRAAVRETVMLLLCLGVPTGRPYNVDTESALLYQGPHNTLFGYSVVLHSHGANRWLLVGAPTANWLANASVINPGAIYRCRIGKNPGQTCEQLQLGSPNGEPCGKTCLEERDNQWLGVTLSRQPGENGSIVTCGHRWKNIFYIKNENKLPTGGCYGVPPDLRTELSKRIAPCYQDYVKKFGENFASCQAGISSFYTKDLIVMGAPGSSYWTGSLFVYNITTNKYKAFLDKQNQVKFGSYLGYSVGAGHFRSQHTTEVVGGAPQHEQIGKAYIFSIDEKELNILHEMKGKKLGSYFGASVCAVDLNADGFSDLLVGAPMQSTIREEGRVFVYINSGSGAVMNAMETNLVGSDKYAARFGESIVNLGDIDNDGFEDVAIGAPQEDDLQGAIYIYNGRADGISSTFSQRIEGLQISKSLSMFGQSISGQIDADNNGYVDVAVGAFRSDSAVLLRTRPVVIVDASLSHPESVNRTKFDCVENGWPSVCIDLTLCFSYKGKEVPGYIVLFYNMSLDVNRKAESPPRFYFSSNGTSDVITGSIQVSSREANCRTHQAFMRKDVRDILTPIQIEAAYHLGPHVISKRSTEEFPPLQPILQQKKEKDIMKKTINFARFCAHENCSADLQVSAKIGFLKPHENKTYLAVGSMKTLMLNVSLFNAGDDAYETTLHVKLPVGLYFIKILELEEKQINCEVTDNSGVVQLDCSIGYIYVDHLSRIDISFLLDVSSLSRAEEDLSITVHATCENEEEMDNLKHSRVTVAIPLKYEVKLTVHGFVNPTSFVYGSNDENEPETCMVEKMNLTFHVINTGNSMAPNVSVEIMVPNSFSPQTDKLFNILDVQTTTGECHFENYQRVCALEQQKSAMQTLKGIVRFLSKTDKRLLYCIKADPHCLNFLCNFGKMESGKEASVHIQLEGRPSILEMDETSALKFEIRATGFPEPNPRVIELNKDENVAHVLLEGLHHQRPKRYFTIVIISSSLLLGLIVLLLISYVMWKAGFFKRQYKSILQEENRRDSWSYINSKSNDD

SMILES	outcome	dissociation rate
COC(=O)[C@@H]1[C@@H](C(=O)OC)C2(c3ccccc3-c3ccccc32)N(c2ccc(Cl)cc2)N1C#N	inactive	
c1ccc2c(-c3ccc(OCCN4CCCC4)cc3)c(-c3ccsc3)sc2c1		0.048 s⁻¹ (inactive)
CN(C)CCOc1ccc(-c2c(-c3ccccc3)sc3ccccc23)cc1		0.06 s⁻¹
COC(=O)C1OC2(OC1C(=O)OC)c1ccccc1-c1ccccc12 (centres undefined)	inactive	
Cc1ccc(NC(=O)c2cc(N3C(=O)CCC3=O)ccc2N2CCOCC2)cc1Cl	inactive	
COC(=O)C1CN(C#N)N(c2ccc(Cl)cc2)C12c1ccccc1-c1ccccc12 (centres undefined)	inactive	
COc1ccc(-c2sc3ccccc3c2-c2ccc(OCCN(C)C)cc2)cc1		0.08 s⁻¹
CCOCCCNC(=O)/C(C#N)=C/c1ccc(Cl)c([N+](=O)[O-])c1	inactive	
CCOC(=O)COc1ccccc1/C=C\[N+](=O)[O-]	inactive	
c1ccc2c(-c3ccc(OCCN4CCCCC4)cc3)c(-c3ccsc3)sc2c1		0.016 s⁻¹ (inactive)
Cc1ccc(NC(=O)c2cc(N3C(=O)CCC3=O)ccc2N2CCOCC2)cc1	inactive	
CCOC(=O)/C(=C\c1ccc(OC(F)F)cc1)C1=Nn2c(nnc2-c2ccc(Cl)cc2)SC1	inactive	
O=C(COc1ccc(/C=N/NC(=O)c2cc3ccccc3o2)cc1Cl)Nc1ccccc1	inactive	
COc1cccc(-c2sc3ccccc3c2-c2ccc(OCCN3CCCC3)cc2)c1		0.065 s⁻¹
CC(NC(=O)/C(C#N)=C/c1ccc(Cl)c([N+](=O)[O-])c1)c1ccccc1 (centres undefined)	inactive	
FC(F)Oc1ccc(C2=Nn3c(nnc3-c3ccccc3Cl)SC2)cc1OCC1CC1	inactive	
COc1cccc(-c2sc3ccccc3c2-c2ccc(OCCN(C)C)cc2)c1		0.06 s⁻¹
O=C1NC(=O)C2(N1)c1ccccc1-c1ccccc12	inactive	
c1ccc(-c2sc3ccccc3c2-c2ccc(OCCN3CCCC3)cc2)cc1		0.055 s⁻¹
